What follows are compounds tested against T1, serotonergic 5-HT1A receptors (Rattus norvegicus, UniProt P19327) (assay: Affinity for the 5-HT1A receptor: inhibition of [3H]8-OH-DPAT binding to rat cerebral cortex membranes). Conditions: [3H]8-OH-DPAT 1 nM, 30 min at 25° C., Tris-HCl 50 mM, pH=7.4.
T1 construct: from tissue; host or cells: cerebral cortex membranes of male Sprague Dawley rats
T1 sequence (P19327 1-422): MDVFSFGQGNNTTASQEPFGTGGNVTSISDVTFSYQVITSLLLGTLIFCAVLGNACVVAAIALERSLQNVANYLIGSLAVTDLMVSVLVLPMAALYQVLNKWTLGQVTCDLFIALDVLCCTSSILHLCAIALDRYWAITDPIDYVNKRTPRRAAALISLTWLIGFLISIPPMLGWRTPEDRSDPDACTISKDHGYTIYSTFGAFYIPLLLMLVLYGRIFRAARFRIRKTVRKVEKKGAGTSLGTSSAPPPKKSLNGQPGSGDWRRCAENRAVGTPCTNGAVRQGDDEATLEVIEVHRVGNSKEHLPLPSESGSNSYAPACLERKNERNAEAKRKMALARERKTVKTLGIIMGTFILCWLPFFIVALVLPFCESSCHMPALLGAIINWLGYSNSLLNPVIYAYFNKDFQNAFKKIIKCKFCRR
Set-up: species or system rat (male Sprague Dawley)
Experimental: The affinity of the compounds for serotonergic 5-HT1A receptors is determined by measuring the inhibition of [3H]8-hydroxy-2(di-n-propylamino)tetralin([3H]8-OH-DPAT) bound to the cerebral cortex of the rat, according to the method of Peroutka and his coworkers [(J. Neurochem., 47, 529 (1986)].
Cerebral cortices of male Sprague Dawley rats are homogenised in Tris-HCl 50 mM, pH=7.4 and centrifuged at 40,000 g for 10 min at 4° C. Pellets are resuspended in the same buffer and incubated for 10 min at 37° C., and the homogenised products are centrifuged again at 40,000 g for 10 min at 4° C.
Competitive inhibition tests of [3H]8-OH-DPAT binding are carried out three times with unlabelled competitors, with concentrations between 100 pM and 100 µM. Cerebral cortex membranes of rats (10 mg wet weight/ml) are incubated with [3H]8-OH-DPAT (1 nM) for 30 min at 25° C. in Tris-HCl 50 mM, pH=7.4 containing 4 mM of CaCl2, 10 µM of pargyline and 0.1% of ascorbic acid.
The bound [3H]8-OH-DPAT is separated from free [3H]8-OH-DPAT by immediate filtration by means of Whatman GF/B glass fibre filters using a Brandel cell recovery device. The filters are washed three times with the same buffer at 0-4° C. and their radioactivity is studied by means of a liquid scintillation spectrometer.
The specific binding is obtained by subtracting the binding determined in the presence of 1 M of 8-OH-DPAT from the total binding. The characteristics of the binding are analysed by iterative analysis of the non-linear regression by computer, using the Ligand program [Munson and Rodbard, Anal. Biochem., 107, 220 (1980)].

Row | Ki | SMILES
1 | 0.055 nM | O=C(NCCCCNCCOc1cccc2cccnc12)c1ccccc1 [Compound 5, N-[4-({2-(8-quinolyloxy)ethyl}amino)butyl]benzamide]
2 | 0.081 nM | CC(C)(C)C(=O)NCCCCNCCOc1cccc2cccnc12 [Compound 1, N-[4-({2-(8-quinolyloxy)ethyl}amino)butyl]tert-butanamide]
3 | 0.35 nM | Cc1ccc2cccc(OCCNCCCCNC(=O)CC(C)(C)C)c2n1 [Compound 7]
4 | 0.12 nM | CC(C)(C)CC(=O)NCCCCNCCOc1cccc2cccnc12 [Compound 2]
5 | 0.75 nM | O=C(NCCCCNCCOc1cccc2nccnc12)c1ccccc1 [Compound 9, N-[4-({2-(5-quinoxalyloxy)ethyl}amino)butyl]benzamide]
6 | 0.09 nM | CC(C)(C)CNC(=O)CCCCNCCOc1cccc2cccnc12 [Compound 12, N-neopentyl-5-[(2-{8-quinolyloxy}ethyl)amino]pentanamide]
7 | 0.15 nM | O=C(NCCCCNCCOc1cccc2cccnc12)C1CCCCC1 [Compound 3, N-[4-({2-(8-quinolyloxy)ethyl}amino)butyl]cyclohexanamide]
8 | 0.98 nM | CC(C)(C)CC(=O)NCCCCNCCOc1ccc(Cl)c2cccnc12 [Compound 6]
9 | 0.072 nM | O=C(CCCCNCCOc1cccc2cccnc12)NC1CCCCC1 [Compound 11, N-cyclohexyl-5-[(2-{8-quinolyloxy}ethyl)amino]pentanamide]
10 | 0.48 nM | CC(C)(C)CNC(=O)CCCCNCCOc1cccc2nccnc12 [Compound 13, N-neopentyl-5-[(2-{5-quinoxalyloxy}ethyl)amino]pentanamide]
11 | 0.11 nM | CC1(C(=O)NCCCCNCCOc2cccc3cccnc23)CCCCC1 [Compound 4]
